The record followed here is ChEMBL document CHEMBL1158421, “Inhibitory effect of a dimerization-arm-mimetic peptide on EGF receptor activation” (Bioorg Med Chem Lett, 2009).

Calls of active or inactive are those of the source. No cut-off for these calls is given here. Where a SMILES comes first, the peptide text is derived from it. Bridges are numbered along the chain shown (N, C = ends).

Common to all, as to format: cell-based
What all share (settings): A-431

For assay [1], the target named is Epidermal growth factor receptor (Homo sapiens) (UniProt P00533). The experiment in a line: Reduction in EGF-induced dimerization of human EGFR in A431 cells at 0.01 to 1 uM preincubated for 30 mins before EGF challenge by SDS-PAGE.
Chain of Epidermal growth factor receptor (Homo sapiens) (P00533 whole entry): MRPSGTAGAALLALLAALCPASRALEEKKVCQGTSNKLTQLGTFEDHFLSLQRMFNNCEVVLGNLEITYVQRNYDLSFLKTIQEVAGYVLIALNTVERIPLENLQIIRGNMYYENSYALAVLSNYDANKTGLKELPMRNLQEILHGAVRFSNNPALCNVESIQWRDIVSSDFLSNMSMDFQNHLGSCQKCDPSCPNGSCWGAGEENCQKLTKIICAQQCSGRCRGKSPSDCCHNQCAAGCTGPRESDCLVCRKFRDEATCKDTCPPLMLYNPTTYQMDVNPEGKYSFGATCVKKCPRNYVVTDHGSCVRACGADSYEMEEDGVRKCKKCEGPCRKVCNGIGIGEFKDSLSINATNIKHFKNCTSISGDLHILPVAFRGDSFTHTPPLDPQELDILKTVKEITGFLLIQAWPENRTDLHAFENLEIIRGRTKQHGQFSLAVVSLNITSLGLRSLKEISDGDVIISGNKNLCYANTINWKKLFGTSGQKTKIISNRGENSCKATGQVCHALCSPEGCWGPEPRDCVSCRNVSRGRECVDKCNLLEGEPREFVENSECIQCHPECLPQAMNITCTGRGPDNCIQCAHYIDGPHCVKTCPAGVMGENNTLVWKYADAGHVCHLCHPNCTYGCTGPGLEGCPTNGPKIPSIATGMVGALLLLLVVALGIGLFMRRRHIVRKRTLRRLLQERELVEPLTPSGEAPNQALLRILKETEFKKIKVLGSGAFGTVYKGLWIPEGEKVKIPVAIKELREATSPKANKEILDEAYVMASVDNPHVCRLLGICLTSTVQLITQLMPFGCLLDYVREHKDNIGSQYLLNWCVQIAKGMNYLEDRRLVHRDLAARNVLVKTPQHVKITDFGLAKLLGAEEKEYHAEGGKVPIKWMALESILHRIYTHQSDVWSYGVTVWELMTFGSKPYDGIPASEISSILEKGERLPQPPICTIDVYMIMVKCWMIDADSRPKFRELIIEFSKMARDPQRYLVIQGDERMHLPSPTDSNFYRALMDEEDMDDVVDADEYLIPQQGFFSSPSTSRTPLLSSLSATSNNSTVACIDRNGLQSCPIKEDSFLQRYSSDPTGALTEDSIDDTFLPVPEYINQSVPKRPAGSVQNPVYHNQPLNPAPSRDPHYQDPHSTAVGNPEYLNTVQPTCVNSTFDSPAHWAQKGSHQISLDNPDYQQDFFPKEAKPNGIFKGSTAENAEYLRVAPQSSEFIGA
For assay [2] the target is unchanged. In words: Reduction in EGF-induced dimerization of human EGFR in A431 cells preincubated for 30 mins before EGF challenge by SDS-PAGE.
For assay [3] the target is unchanged. In words: Inhibition of EGF-stimulated human EGFR in intact A431 cells assessed as suppression of residual autophosphorylation at 0.1 uM preincubated for 3 hrs before EGF challenge by SDS-PAGE relative to control.
The target is the same in assay [4]. In words: Inhibition of EGF-stimulated human EGFR in intact A431 cells assessed as suppression of residual autophosphorylation at 1 uM preincubated for 3 hrs before EGF challenge by SDS-PAGE relative to control.
Assay [5] has the same target. In words: Inhibition of EGF-induced dimerization of human EGFR in A431 cells at >1 uM preincubated for 30 mins before EGF challenge by SDS-PAGE.
Assay [6] has the same target. The experiment in a line: Inhibition of EGF-stimulated human EGFR in intact A431 cells assessed as suppression of residual autophosphorylation at 10 uM preincubated for 3 hrs before EGF challenge by SDS-PAGE relative to control.
Assay [7] has the same target. The experiment in a line: Reduction in EGF-induced dimerization of human EGFR in A431 cells at 1 uM preincubated for 30 mins before EGF challenge by SDS-PAGE relative to control. Details: scale not given: the % may be the effect or the level left.

With `CSCC[C@H](NC(=O)[C@H](CCC(N)=O)NC(=O)[C@H](Cc1ccc(O)cc1)NC(=O)[C@@H](NC(=O)[C@@H](NC(=O)[C@@H]1CCCN1C(=O)[C@H](CC(N)=O)NC(=O)[C@H](Cc1ccc(O)cc1)NC(=O)[C@@H](N)CS)[C@@H](C)O)[C@@H](C)O)C(=O)N[C@@H](CS)C(=O)O` (H-CYNPTTYQMC-OH), the outcome in assay [1] was inactive.
With `CSCC[C@@H]1NC(=O)[C@H](CCC(N)=O)NC(=O)[C@H](Cc2ccc(O)cc2)NC(=O)[C@H]([C@@H](C)O)NC(=O)[C@H]([C@@H](C)O)NC(=O)[C@@H]2CCCN2C(=O)[C@H](CC(N)=O)NC(=O)[C@H](Cc2ccc(O)cc2)NC(=O)[C@@H](N)CSSC[C@@H](C(=O)O)NC1=O` (H-CYNPTTYQMC-OH; disulfide 1-10), the Activity result is “Dose-dependent effect” in assay [2]; 61% in assay [3]; 51% in assay [4]; 30% in assay [6]; less than 80% in assay [7]. Besides, in assay [5], the outcome was inactive.
